Values of other authors in patent US5888536A (Chinoin Ltd., priority 1994, dated 1999).

Q: Which solubility in chloroform (chloroform) does the source give for `C#CCN(C)[C@H](C)Cc1ccccc1` [selegilin, (-)-[N-α-dimethyl-N-(2-propynylphenylethylamine)]] here?
A: The solubility in chloroform was 1 g/5 ml.

Q: What about the solubility in methanol (methanol) of the same molecule?
A: The solubility in methanol was 1 g/3 ml.

Q: What about the solubility in water (water) of the same molecule?
A: The solubility in water was 1 g/3 ml.
